# Measurements from article PMC9911797, “Novel TLR7/8 agonists promote activation of HIV-1 latent reservoirs and human T and NK cells” (Frontiers in Microbiology, 2023).
# Legend:
# hTLR7 = target: T1, hTLR7 (Homo sapiens, UniProt Q9NYK1); test: HEK-Blue hTLR7 SEAP reporter assay; assay type: cell-based; settings: HEK-Blue hTLR7 cells, SEAP in supernatant
# T1 construct: host or cells: HEK-Blue hTLR7 (HEK293-derived)
# T1 sequence (Q9NYK1 27-1049): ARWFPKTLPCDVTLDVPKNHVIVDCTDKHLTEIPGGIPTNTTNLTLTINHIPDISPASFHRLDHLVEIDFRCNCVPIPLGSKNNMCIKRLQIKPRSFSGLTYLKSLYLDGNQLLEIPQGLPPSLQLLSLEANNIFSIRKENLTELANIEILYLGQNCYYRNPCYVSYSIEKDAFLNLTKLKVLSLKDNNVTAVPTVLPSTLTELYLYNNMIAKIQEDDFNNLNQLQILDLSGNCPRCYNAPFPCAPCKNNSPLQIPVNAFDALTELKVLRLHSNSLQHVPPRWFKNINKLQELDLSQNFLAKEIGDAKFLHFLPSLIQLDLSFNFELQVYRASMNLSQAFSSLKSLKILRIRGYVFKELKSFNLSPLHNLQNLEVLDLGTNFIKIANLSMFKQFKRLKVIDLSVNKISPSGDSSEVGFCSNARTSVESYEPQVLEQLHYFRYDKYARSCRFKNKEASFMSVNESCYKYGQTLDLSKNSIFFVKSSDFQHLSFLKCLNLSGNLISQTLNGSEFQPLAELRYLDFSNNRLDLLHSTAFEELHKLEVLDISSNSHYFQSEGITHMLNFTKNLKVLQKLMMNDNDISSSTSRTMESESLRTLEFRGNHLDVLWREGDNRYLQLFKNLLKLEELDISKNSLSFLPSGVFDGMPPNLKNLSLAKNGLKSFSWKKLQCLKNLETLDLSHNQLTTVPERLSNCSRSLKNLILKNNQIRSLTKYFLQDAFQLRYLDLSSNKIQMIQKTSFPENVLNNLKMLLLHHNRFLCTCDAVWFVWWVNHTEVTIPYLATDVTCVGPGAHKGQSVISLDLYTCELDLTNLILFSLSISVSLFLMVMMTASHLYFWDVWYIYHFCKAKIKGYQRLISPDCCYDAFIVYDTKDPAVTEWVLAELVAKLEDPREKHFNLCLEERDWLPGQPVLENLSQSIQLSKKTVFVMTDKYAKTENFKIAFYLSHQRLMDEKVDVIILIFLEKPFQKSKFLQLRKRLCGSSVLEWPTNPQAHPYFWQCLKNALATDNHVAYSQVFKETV
# Experimental: Starting with the lead compound, 76 pyrido [3,2-d] pyrimidine derivatives were synthesized and optimized through structural modification from the deep hydrophobic region to the solvent-exposed region. Seventy-six compounds were evaluated for their in vitro activity using HEK-Blue hTLR7 or hTLR8 reporter cells, stably expressing the human TLR7 or TLR8 and an NF-κB/AP1-inducible SEAP (secreted embryonic alkaline phosphatase reporter gene).
# Add 20 μl various concentrations of TLR agonists (10 dilutions) and in a 96-well plate. Then HEK-Blue hTLR7 and hTLR8 cells were suspended to 4 × 10^5 cells/ml in HEK-Blue Detection (InvivoGen) medium and added 180 μl per well. The plates were incubated at 37°C in 5% CO2 for 12 ~ 16 h. Stimulation with a hTLR7or hTLR8 ligand activates NF-κB to induce the production of secreted embryonic alkaline phosphatase (SEAP) in the culture supernatant. SEAP could be measured at OD630nm on an ELISA plate reader.
# [1] = system: PBMCs from HIV-1 well-suppressed patients; test: Latent HIV-1 activation in PBMCs of well-suppressed patients (HIV-1 RNA copies in supernatant, RT-qPCR); assay type: cell-based, human
# From the text: To study the potential of novel TLR7/8 in activating latent HIV-1 reservoir, TLR7/8 dual agonists D018 and C142 and TLR8-specific agonist B-130a were mixed with PBMCs from six well-suppressed patients whose viral load in the plasma was less than 50 copies/ml, and CD4 counts were more than […] for more than 6 years.
# TLR7/8 agonists activated PBMCs from seven well-suppressed patients with the addition of anti-TNF-α monoclonal antibody or IgG1-control monoclonal antibody, respectively. D018, B-130a, and the positive control PMA + ION increased the levels of HIV-1 RNA copies in the supernatant and the concentration of TNF-α concomitantly.
# To measure the HIV viral load, viral RNA from supernatants was extracted by MagaBio Plus Viral DNA / RNA Purification Kit (BIOER). The reverse-transcription and analysis of RNA copies were performed using the HIV-1 Real-time PCR detection kit (BIOER).
# [2] = system: PBMCs from healthy donors; test: Surface activation markers on immune cells of healthy donor PBMCs (flow cytometry); assay type: cell-based, human; settings: 1 μM, 24 h
# From the text: TLR family is essential in connecting innate immunity with acquired immunity in fighting against infection. It was then studied whether the identified TLR7/8 agonists could activate cell populations within PBMC, thereby potentiating their effector functions. […] The representative diagram of the gating strategy for each immune cell is shown in Supplementary Figure S5. All tested TLR7/8 agonists activated CD69 and NKG2D expression on CD56^bright and CD56^dim NK cells (Figures 6A–D), as well as CD69 and CD25 expression on CD4+ and CD8+ T cells (Figures 6E–H).
# Then cells were collected and washed in FACS buffer (PBS + 2%FBS). Cells were incubated by fluorescence antibodies at 4°C for 30 min. For T cells, CD3-PE-Cy7 (Biolegend), CD4-PE (BD), CD8-FITC (Biolegend), CD25-BV421 (Biolegend), CD69-BV510 (Biolegend). For NK cells, CD16-PE (Biolegend), CD56-APC (Biolegend), CD69-BV510 (Biolegend), NKG2D-BV421 (Biolegend). For monocytes, CD14-PE-Cy7 (Invitrogen), CD40-APC-Cy7 (Biolegend) HLR-DR-BV510 (Biolegend). For dendritic cells, anti-human lineage cocktail-APC (Biolegend), CD11c-PE-Cy7 (Biolegend), CD80-BV510 (Biolegend), CD86-AF488 (Biolegend).
# [3] = system: J-LAT cells co-cultured with MDDCs; test: J-LAT and MDDC co-culture assay (GFP+ cells and TNF-α); settings: 1 μM, 48 h
smiles,measurement,setting,value
CCCCNc1nc(N)nc2ccc(Cc3ccc(CN(C)C)cc3)nc12 [D018],EC50,hTLR7,40.2 nM
same,HIV-1 RNA copies in the supernatant and TNF-α concentration,"[1]; PBMCs from seven well-suppressed patients, IgG1-control antibody vs anti-TNF-α",increased
same,HIV-1 RNA copies in the supernatant,"[1]; patient PBMCs (n = 6), 96 h at 37°C",most potent
same,CD69/NKG2D on NK cells and CD69/CD25 on CD4+ and CD8+ T cells,[2],most potent
same,GFP+ J-LAT cells and soluble TNF-α in MDDC co-culture,[3],marked increase
